# Test results: ChEMBL document CHEMBL3044864, “Synthesis and in vitro anticancer activities of novel aryl-naphthalene lignans” (Med Chem Res, 2012)
# Calls of active or inactive are those of the source. No cut-off for these calls is given here.
# Tests used:
# SW480 = assay: Cytotoxicity against Homo sapiens (human) SW480 cells after 72 hr by MTT assay; assay type: functional, cell-based; settings: SW480, 72 h
# KB [1] = assay: Induction of apoptosis in Homo sapiens (human) KB cells assessed as nuclear fragmentation at 5 to 10 uM after 72 hr using AO/EB staining by fluorescence microscopy; assay type: functional, cell-based
# KB [2] = assay: Induction of apoptosis in Homo sapiens (human) KB cells assessed as early apoptic cells with nuclear condensation at 5 to 10 uM after 72 hr using AO/EB staining by fluorescence microscopy; assay type: functional, cell-based
# KB [3] = assay: Induction of apoptosis in Homo sapiens (human) KB cells assessed as downregulation of bcl2 expression at 5 to 15 uM after 72 hr by Western blot analysis; assay type: functional, cell-based
# KB [4] = assay: Induction of apoptosis in Homo sapiens (human) KB cells assessed as nuclear condensation at 5 to 10 uM after 72 hr using Hoechst/PI staining by fluorescence microscopy; assay type: functional, cell-based
# KB [5] = assay: Induction of apoptosis in Homo sapiens (human) KB cells assessed as increase in cleaved caspase 3 level after 72 hr by Western blot analysis; assay type: functional, cell-based
# KB [6] = assay: Induction of apoptosis in Homo sapiens (human) KB cells assessed as appearance of apoptotic bodies n at 5 to 10 uM after 72 hr using AO/EB staining by fluorescence microscopy; assay type: functional, cell-based
# KB [7] = assay: Induction of apoptosis in Homo sapiens (human) KB cells assessed as upregulation of bax expression at 5 to 15 uM after 72 hr by Western blot analysis; assay type: functional, cell-based
# A549 = assay: Cytotoxicity against Homo sapiens (human) A549 cells after 72 hr by MTT assay; assay type: functional, cell-based; settings: A549, 72 h
# KB [8] = assay: Cytotoxicity against Homo sapiens (human) KB cells after 72 hr by MTT assay; assay type: functional, cell-based
# Leishmania = assay: Antileishmanial activity against Leishmania promastigotes; assay type: functional, organism-based
# [9] = Antiproliferative activity against Homo sapiens (human) monocytes; assay type: cell-based; settings: Monocyte
Structure (SMILES),IC50 (SW480),IC50 (A549),IC50 (KB [8]),also measured
Cc1ccc(-c2c3c(c(O)c4cc5c(cc24)OCO5)COC3=O)cc1,4 µM,30 µM,18.9 µM,Activity (KB [1]): Active; Activity (KB [2]): Active; Activity (KB [3]): Active; Activity (KB [4]): Active; Activity (KB [5]): Dose-dependent effect; Activity (KB [6]): Active; Activity (KB [7]): Active
COc1cc2c(O)c3c(c(-c4ccc5c(c4)OCO5)c2cc1OC)C(=O)OC3 [DIPHYLLIN],3.4 µM,8 µM,5.3 µM,IC50 (Leishmania): 14.4 µM; IC50 [9]: 35.2 µM
COc1ccc(-c2c3c(c(O)c4cc5c(cc24)OCO5)COC3=O)cc1OC,> 100 µM,39.5 µM,45.2 µM,
O=C1OCc2c1c(-c1ccccc1)c1cc3c(cc1c2O)OCO3,> 100 µM,> 100 µM,> 100 µM,
COc1ccccc1-c1c2c(c(O)c3cc4c(cc13)OCO4)COC2=O,21.1 µM,> 100 µM,> 100 µM,
O=C1OCc2c1c(-c1ccc3c(c1)OCO3)c1cc3c(cc1c2O)OCO3 [TAIWANIN E],> 100 µM,53.3 µM,19.7 µM,
COc1cc(-c2c3c(c(O)c4cc5c(cc24)OCO5)COC3=O)cc(OC)c1OC [DEHYDROPODOPHYLLOTOXIN],> 100 µM,107 µM,29.1 µM,
COc1ccc(-c2c3c(c(O)c4cc5c(cc24)OCO5)COC3=O)cc1,> 100 µM,35.6 µM,> 100 µM,
COc1cccc(-c2c3c(c(O)c4cc5c(cc24)OCO5)COC3=O)c1,> 100 µM,68.6 µM,> 100 µM,
COc1cc([C@@H]2c3cc4c(cc3[C@@H](O[C@@H]3O[C@@H]5CO[C@@H](C)O[C@H]5[C@H](O)[C@H]3O)[C@H]3COC(=O)[C@H]23)OCO4)cc(OC)c1O [ETOPOSIDE],6.4 µM,3.9 µM,8.3 µM,
COc1cc(OC)cc(-c2c3c(c(O)c4cc5c(cc24)OCO5)COC3=O)c1,> 100 µM,> 100 µM,33.3 µM,
COc1ccc(OC)c(-c2c3c(c(O)c4cc5c(cc24)OCO5)COC3=O)c1,> 100 µM,> 100 µM,> 100 µM,
